# Assay results taken from article PMC5471252, “Anti-leukemia activity of a Hsp70 inhibitor and its hybrid molecules” (Scientific Reports, 2017).
# Key:
# [1] = test system: HL-60 cells; test: MTT assay, cell viability of HL-60 cells; assay type: cell-based; settings: Homo sapiens, 48 h, mean ± s.d., n = 3, read-out: IC50 values of compounds for leukemia cells
# [2] = test system: KG-1 cells; test: MTT assay, cell viability of KG-1 cells; assay type: cell-based; settings: Homo sapiens, 48 h, mean ± s.d., n = 3, read-out: IC50 values of compounds for leukemia cells
# [3] = test system: THP-1 cells; test: MTT assay, cell viability of THP-1 cells; assay type: cell-based; settings: Homo sapiens, 48 h, mean ± s.d., n = 3, read-out: IC50 values of compounds for leukemia cells
# [4] = test system: U937 cells; test: MTT assay, cell viability of U937 cells; assay type: cell-based; settings: Homo sapiens, U-937, 48 h, mean ± s.d., n = 3, read-out: IC50 values of compounds for leukemia cells
# [5] = test system: Jurkat cells; test: MTT assay, cell viability of Jurkat cells; assay type: cell-based; settings: Homo sapiens, 48 h, mean ± s.d., n = 3, read-out: IC50 values of compounds for leukemia cells
# [6] = test system: K562 cells; test: MTT assay, cell viability of K562 cells; assay type: cell-based; settings: Homo sapiens, 48 h, mean ± s.d., n = 3, read-out: IC50 values of compounds for leukemia cells
# [7] = test system: human leukemia cells (HL-60, KG-1, THP-1, U937, Jurkat and K562 cells); test: MTT assay, all tested leukemia cells (summary statements); settings: all tested leukemia cells, MTT, compared with Az, GD and imatinib
# Protocol: To assess anti-leukemia activity of Az, several human leukemia cells (HL-60 cells, acute myeloid leukemia; Jurkat cells, acute T-lymphocytic leukemia; KG-1 cells, acute myeloid leukemia; U937 cells, acute myeloid leukemia; THP-1 cells, acute monocytic leukemia; K562 cells, chronic myeloid leukemia) were incubated with Az for 48 h. […] An MTT assay was then performed to measure cell viabilities.
# Cells were exposed to each compound (a HCl salt form) at various concentrations for indicated time periods (24 or 48 h) in culture media. MTT assays were conducted according to known procedures. The absorbance at 570 nm was determined by employing a microplate reader (TECAN, Infinite® 200 PRO).
# [8] = test system: HL-60 and K562 cells; test: Flow cytometry, fluorescein-annexin V and PI staining; assay type: cell-based, human; settings: 24 h; 10 µM Az, 10 µM GD or 4 µM Az-O3-GD
# Protocol: To determine whether Az promotes leukemia cell death via apoptosis, acute leukemia HL-60 and chronic leukemia K562 cells were independently incubated with Az. The treated cells were then exposed to a mixed solution of fluorescein-annexin V and propidium iodide (PI) and flow cytometry analysis was conducted. […] The size of the treated cells was also assessed by using flow cytometry. […] We also investigated if the mitochondrial membrane potential in cells treated with Az is disrupted. To test this possibility, HL-60 and K562 cells were exposed to Az and subsequently stained with a membrane potential sensitive JC-1 probe. […] This serves as another evidence for apoptosis induced by Az.
# HL-60 and K562 cells were incubated with each compound for 24 h in culture media. Cells were re-suspended with 500 μL binding buffer (10 mM HEPES, […] and 2.5 mM CaCl2, pH 7.5) and then incubated with the FITC-annexin V apoptosis detection kit with PI according to the protocol provided by the manufacturer. Flow cytometry was carried out by using a BD FACSVerse™ instrument (BD Biosciences) and the data were analyzed by using a FlowJo™ software (BD Biosciences).
# [9] = molecular target: T1, ATPase domain of Hsp70 (Homo sapiens, UniProt P0DMV8); test: PiColorLock ATPase assay, Hsp70; assay type: biochemical; settings: 10, 20 and 40 µM compound, 10 µM ATP, compared with Az
# T1 construct: mixed with 2 µg of an ATPase domain of Hsp70
# T1 sequence (P0DMV8 2-386 limits assumed): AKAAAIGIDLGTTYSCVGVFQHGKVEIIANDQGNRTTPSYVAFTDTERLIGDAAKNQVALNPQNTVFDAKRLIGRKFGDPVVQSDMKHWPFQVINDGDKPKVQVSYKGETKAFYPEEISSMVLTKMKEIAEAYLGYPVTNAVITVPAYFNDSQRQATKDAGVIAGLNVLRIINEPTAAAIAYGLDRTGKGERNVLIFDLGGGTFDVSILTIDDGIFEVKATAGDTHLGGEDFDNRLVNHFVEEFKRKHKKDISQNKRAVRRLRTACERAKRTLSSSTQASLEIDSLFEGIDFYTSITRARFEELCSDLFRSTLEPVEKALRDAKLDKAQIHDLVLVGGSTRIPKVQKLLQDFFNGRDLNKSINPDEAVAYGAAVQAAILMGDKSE
# Protocol: (§1) Inhibition by the hybrids on the ATPase activities of Hsp70 and Hsp90 was determined by using a PiColorLock assay and on the kinase activity of Abl by using a radiometric assay.
# ATPase assays. ATPase assays were conducted in 20 mM Tris-HCl, 10 mM MgCl2 and 100 mM KCl buffer solution mixed with 2 µg of an ATPase domain of Hsp70. Each compound (10, 20 and 40 µM) was added to the protein solution in a 96-well plate. After the mixture was placed in the plate for 30 min at room temperature, 10 µM ATP was added to the mixture and the mixture was incubated for 3 h at 37 °C. To measure ATPase activity, 10 µl of a 1:100 mixture of PiColorLock Gold reagent (Innova Biosciences) and an accelerator was added to each well. After 5 min at room temperature, 4 µL of a stabilizer was added to the mixture and then incubated for additional 30 min before taking measurement. The absorbance at 620nm was measured by using an Infinite® 200 PRO multimode microplate reader. The same procedure was used to measure ATPase activity of Hsp90 except concentrations of protein (1 µg) and ATP (1 mM).
# (§2) Supplementary Figure S10. Inhibitory effect of hybrid molecules on Hsp70, Hsp90 and Abl activities. (a) ATPase activity of Hsp70 was measured by using a Pi-Colorlock assay after incubation of an ATPase domain of Hsp70 with various concentrations of indicated molecules and 10 µM ATP (mean ± s.d., n =3). (b) ATPase activity of Hsp90 was measured by using a Pi-Colorlock assay after incubation of Hsp90 with various concentrations of indicated molecules and 1 mM ATP (mean ± s.d., n = 3). (c) Abl kinase activity was measured by using a radiometric kinase assay after incubation of Abl with a peptide substrate in the presence of various concentrations of indicated molecules and γ-^33P-ATP (mean ± s.d., n =3).
# [10] = molecular target: T2, human recombinant Abl (Homo sapiens, UniProt P00519); test: Radiometric Abl kinase assay; assay type: biochemical; settings: compared with imatinib
# T2 construct: purchased Eurofins Pharma Discovery Services (UK Limited); host or cells: insect cells
# T2 sequence (P00519 whole entry): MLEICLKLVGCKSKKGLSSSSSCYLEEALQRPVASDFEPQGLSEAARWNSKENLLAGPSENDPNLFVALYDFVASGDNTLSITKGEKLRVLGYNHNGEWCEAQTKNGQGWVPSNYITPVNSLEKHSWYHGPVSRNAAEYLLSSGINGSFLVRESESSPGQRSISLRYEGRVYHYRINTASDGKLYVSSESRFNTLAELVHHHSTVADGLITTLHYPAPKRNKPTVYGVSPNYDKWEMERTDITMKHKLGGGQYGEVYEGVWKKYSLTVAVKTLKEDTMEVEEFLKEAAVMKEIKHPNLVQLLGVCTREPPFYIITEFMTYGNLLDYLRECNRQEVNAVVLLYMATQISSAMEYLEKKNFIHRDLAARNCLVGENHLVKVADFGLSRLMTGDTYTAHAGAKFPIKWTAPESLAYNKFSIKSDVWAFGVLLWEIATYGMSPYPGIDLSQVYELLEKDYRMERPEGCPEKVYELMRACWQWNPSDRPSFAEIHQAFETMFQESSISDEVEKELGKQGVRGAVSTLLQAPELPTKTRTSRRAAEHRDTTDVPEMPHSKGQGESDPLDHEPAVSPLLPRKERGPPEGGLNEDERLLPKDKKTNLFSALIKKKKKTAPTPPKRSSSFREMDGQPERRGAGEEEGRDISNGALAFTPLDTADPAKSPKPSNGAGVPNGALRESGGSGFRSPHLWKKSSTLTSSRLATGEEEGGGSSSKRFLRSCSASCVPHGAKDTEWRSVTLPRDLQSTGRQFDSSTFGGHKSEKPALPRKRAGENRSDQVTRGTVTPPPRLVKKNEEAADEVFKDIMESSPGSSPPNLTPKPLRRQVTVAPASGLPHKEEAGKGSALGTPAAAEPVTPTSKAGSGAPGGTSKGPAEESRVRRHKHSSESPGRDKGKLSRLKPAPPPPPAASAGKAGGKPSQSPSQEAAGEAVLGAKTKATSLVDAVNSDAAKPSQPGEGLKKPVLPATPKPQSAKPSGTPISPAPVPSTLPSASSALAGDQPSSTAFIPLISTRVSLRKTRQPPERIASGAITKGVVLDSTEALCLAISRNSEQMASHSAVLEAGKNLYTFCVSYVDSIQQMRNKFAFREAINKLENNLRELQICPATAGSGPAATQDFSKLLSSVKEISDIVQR
# Protocol: as §1
# Abl kinase assays. Abl kinase assays were conducted by Eurofins Pharma Discovery Services (UK Limited). Briefly, each compound was pre-incubated with 0.25 µg/mL of human recombinant Abl (expressed in insect cells) in 20 mM MOPS containing 1 mM EDTA, 0.01% Brij-35, 5% glycerol, 0.1% β-mercaptoethanol and 1 mg/mL BSA for 15 min at 37 °C. To the enzyme mixture was added 0.2 mg/mL of poly(Glu:Tyr), 10 µM ATP and 0.25 µCi [γ^33P]ATP. After incubation for 30 min, 3% H3PO4 was added to the mixture to stop enzyme reactions. An aliquot was removed and counted to determine the amount of [^33P]poly(Glu:Tyr) formed by using a Trilux scintillation counter (Wallac Microbeta 12-detector model, Perkin Elmer).
# as §2, with “(c) Abl kinase activity was measured by using a radiometric kinase assay after incubation of Abl with a peptide substrate in the presence of various concentrations of indicated molecules and γ-^33P-ATP (mean ± s.d., n =3).” left out
Compound,IC50 [1],IC50 [2],IC50 [3],IC50 [4],IC50 [5],IC50 [6],cytotoxicity relative to the individual inhibitors [7],"apoptosis, annexin V binding and PI uptake [8]",inhibition of the ATPase activity of Hsp70 [9],inhibitory activity towards Abl kinase [10]
COc1ccc(-c2nc(-c3cc(C(F)(F)F)cc(C(F)(F)F)c3)n(Cc3ccc(C(=O)NCCOCCOCCNC4=C5C[C@@H](C)C[C@H](OC)[C@H](O)[C@@H](C)/C=C(\C)[C@H](OC(N)=O)[C@@H](OC)/C=C\C=C(/C)C(=O)NC(=CC4=O)C5=O)cc3)c2-c2ccc(OC)cc2)cc1 [Az-GD],0.73 ± 0.22 µM,0.91 ± 0.41 µM,0.36 ± 0.12 µM,1.12 ± 0.32 µM,0.89 ± 0.25 µM,0.63 ± 0.21 µM,greatly enhanced cytotoxicities,,,
"COC1=C2C[C@@H](C)C[C@H](OC)[C@H](O)[C@@H](C)/C=C(\C)[C@H](OC(N)=O)[C@@H](OC)/C=C\C=C(/C)C(=O)NC(=CC1=O)C2=O [GD, geldanamycin, reference compound]",2.3 ± 0.74 µM,3.2 ± 1.21 µM,0.9 ± 0.33 µM,4.8 ± 1.22 µM,4.8 ± 1.06 µM,3.7 ± 1.11 µM,,induces apoptosis,,
COc1ccc(-c2nc(-c3cc(C(F)(F)F)cc(C(F)(F)F)c3)n(Cc3ccc(C(=O)NCCOCCOCCOCCN4CCN(Cc5ccc(C(=O)Nc6ccc(C)c(Nc7nccc(-c8cccnc8)n7)c6)cc5)CC4)cc3)c2-c2ccc(OC)cc2)cc1 [Az-O3-Imatinib],> 10 µM,> 10 µM,> 10 µM,> 10 µM,> 10 µM,4.3 ± 0.91 µM,poorer cytotoxicity,,much weaker inhibitors of Hsp70 compared to Az,significantly reduced inhibitory activities towards Abl kinase compared to imatinib
COc1ccc(-c2nc(-c3cc(C(F)(F)F)cc(C(F)(F)F)c3)n(Cc3ccc(C(=O)NCCOCCOCCNC(=O)COCCOCCOCCNC4=C5C[C@@H](C)C[C@H](OC)[C@H](O)[C@@H](C)/C=C(\C)[C@H](OC(N)=O)[C@@H](OC)/C=C\C=C(/C)C(=O)NC(=CC4=O)C5=O)cc3)c2-c2ccc(OC)cc2)cc1 [Az-amide-GD],,,,,,,poorer cytotoxicity,,lower inhibitory activity towards Hsp70 than Az,
COc1ccc(-c2nc(-c3cc(C(F)(F)F)cc(C(F)(F)F)c3)n(Cc3ccc(C(=O)NCCOCCOCCOCCOCCN4CCN(Cc5ccc(C(=O)Nc6ccc(C)c(Nc7nccc(-c8cccnc8)n7)c6)cc5)CC4)cc3)c2-c2ccc(OC)cc2)cc1 [Az-O4-Imatinib],> 10 µM,> 10 µM,> 10 µM,> 10 µM,> 10 µM,4.5 ± 0.88 µM,poorer cytotoxicity,,much weaker inhibitors of Hsp70 compared to Az,significantly reduced inhibitory activities towards Abl kinase compared to imatinib
